Assay results: patent US8889659B2, “Pain relief compositions, manufacture and uses” (API Genesis, LLC, priority 2011, dated 2014)

Tests used:
nasal airway resistance = settings: intranasal use, cited from earlier work
[1] = cited from earlier work
[2] = Diclofenac sodium solubility studies in solvents; assay type: physicochemical; settings: for DICLOFENAC SODIUM SOLUBILITY: 2 wt. % Diclofenac Sodium
Procedure: All solubility samples were prepared in 20 gram sample size. The ingredients of each test samples were weighed to the nearest 0.01 grams. The 20 gram samples were mixed in 50 cc Pyrex glass beakers.
All solubility studies were performed with “Diclofenac Sodium Salt” obtained from Sigma Aldrich, St. Louis, Mo. (CAS #15307-79-6; Sigma-Aldrich Catalog No. D6899; Lot # BCBB7312; M.P. 275-277° C.)
The ingredients were thoroughly mixed at ambient temperatures ranging from 75° F. to 80° F.

[3] = Miscibility of diclofenac sodium and capsaicin liquid solutions
Procedure: The table below includes the compositions of 7 completely miscible and transparent diclofenac sodium and capsaicin liquid solutions that were prepared.
It is evident that alcohols (ethyl alcohol and/or ethoxydiglycol) are required to effect the solubility of Diclofenac salts within the oil based ingredients of the capsaicin vehicles.

pain threshold = settings: in vivo; cited from earlier work
[4] = Solubility of nonivamide / capsaicin in methyl salicylate
blood flow = settings: […] gel, topical, cited from earlier work

COc1cc(CNC(=O)CCCC/C=C/C(C)C)ccc1O [Capsaicin, N-(4-hydroxy-3-methoxybenzyl)-8-methylnon-trans-6-enamide]
reduction in nasal airway resistance (nasal airway resistance): 60%
effectiveness continued for (nasal airway resistance; in most patients): more than 4 months
Aqueous Soluble. [1]: insoluble
Oil Soluble [1]: soluble
solubility in alcohol, methyl salicylate, ether, benzene and chloroform [1]: freely soluble
solubility in water [1]: practically insoluble

O=C([O-])Cc1ccccc1Nc1c(Cl)cccc1Cl.[Na+] [Diclofenac Sodium]
DICLOFENAC SODIUM SOLUBILITY ([2]; Sample 1: 98 wt. % Methyl Salicylate, ambient 75-80° F.): Sparingly Soluble/Insoluble
DICLOFENAC SODIUM SOLUBILITY ([2]; Sample 2: 50 wt. % Methyl Salicylate, 15 wt. % Menthol, 11 wt. % Camphor, 1.5 wt. % Phenol, 20.5 wt. % Macadamia Nut Oil): Sparingly Soluble/Insoluble
DICLOFENAC SODIUM SOLUBILITY ([2]; Sample 3: 98 wt. % Ethyl Alcohol): ^(10)Completely Soluble
DICLOFENAC SODIUM SOLUBILITY ([2]; Sample 4: 98 wt. % Transcutol): ^(10)Completely Soluble
DICLOFENAC SODIUM SOLUBILITY ([2]; Sample 5: 88 wt. % Methyl Salicylate, 10 wt. % Ethyl Alcohol): ^(10)Completely Soluble
DICLOFENAC SODIUM SOLUBILITY ([2]; Sample 6: 50 wt. % Methyl Salicylate, 15 wt. % Menthol, 11 wt. % Camphor, 1.5 wt. % Phenol, 18.5 wt. % Macadamia Nut Oil): Sparingly Soluble/Insoluble
DICLOFENAC SODIUM SOLUBILITY ([2]; Sample 7: 50 wt. % Methyl Salicylate, 15 wt. % Menthol, 11 wt. % Camphor, 1.5 wt. % Phenol, 18.5 wt. % Ethyl Alcohol, 2 wt. % Capsaicin): ^(10)Completely Soluble
DICLOFENAC SODIUM SOLUBILITY ([2]; Sample 8: 50 wt. % Methyl Salicylate, 15 wt. % Menthol, 11 wt. % Camphor, 1.5 wt. % Phenol, 10.5 wt. % Ethyl Alcohol, 2 wt. % Capsaicin): ^(10)Completely Soluble
effect of heating to ˜35° C. on solubility ([2]; mixtures where solubility was sparingly soluble to insoluble): did not have a significant impact
concentration with complete solubility/miscibility in the ethyl alcohol capsaicin vehicle [3]: < 2 wt. %

CCCNC(C)C(=O)Nc1ccccc1C (centres unmarked) [Prilocaine]
Aqueous Soluble. [1]: sparingly
Oil Soluble [1]: soluble

COC(=O)c1ccccc1O [Methyl Salicylate, Methyl salicylate]
Aqueous Soluble. [1]: sparingly

CC(C)[C@@H]1CC[C@@H](C)C[C@H]1O [(l)-menthol]
analgesic effect (pain threshold) (pain threshold): able to increase pain threshold

CCOC(=O)c1ccc(N)cc1 [Benzocaine]
Aqueous Soluble. [1]: sparingly
Oil Soluble [1]: Soluble

CCCCCCCCC(=O)NCc1ccc(O)c(OC)c1 [Nonivamide, vanillylamide of n-nonanoic acid]
solubility levels in methyl salicylate [4]: exceeded 25 wt. %
precipitation from 30 wt. % solution in methyl salicylate ([4]; after 2 weeks of storage at 5° C.): no evidence of any precipitation
precipitation from 30 wt. % solution in methyl salicylate ([4]; powder added at ambient temperature, cooled to −10° C. for 10 hours): did not result in the precipitation

CC12CCC(CC1=O)C2(C)C (centres unmarked) [Camphor]
Oil Soluble [1]: soluble

CCO [Ethyl Alcohol]
Aqueous Soluble. [1]: miscible
Oil Soluble [1]: soluble

CC1CC[C@H](C(C)C)[C@@H](O)C1 (some centres unmarked) [(d)-menthol]
analgesic effect (pain threshold) (pain threshold): completely devoid of any analgesic effect

CC1CCC(C(C)C)C(O)C1 (centres unmarked) [Menthol]
Oil Soluble [1]: soluble
blood flow remains reduced (blood flow; 10 minutes after application): ~20%
reduction of blood flow (blood flow; within 60 seconds of application): 35%
